This note sets out measurements from patent publication US8044204B2, “8-methoxy-9H-isothiazolo[5,4-b]quinoline-3,4-diones and related compounds as anti-infective agents” (Achillion Pharmaceuticals, Inc., priority 2005, dated 2011).

SMILES strings stand for the structures. Values after ≈ are worked out from the molar mass of the structure shown. Structures can show the parent of a compound that is named as a salt. Where two headings read alike, the source gives them in different places. Where only a bound is given, the exact number is not on record here.

The MIC is the lowest concentration found to suppress growth. As a reminder, the CC50 is the concentration giving 50% cytotoxicity.

What all share (format): cell-based
Series [1] relates to S. aureus ATCC 29213. Put plainly: Minimum Inhibitory Concentration (MIC) assay, S. aureus. Particulars: Staphylococcus aureus, ATCC29213; broth microdilution; read-out: MIC against S. Aureus. Summed up:
(§1)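 NCCLS broth microdilution in Mueller-Hinton II broth, two-fold dilutions giving final 0.125–128 μg/mL, inoculum ~1×10^6 cfu/mL. Incubated in ambient air at 37 °C for 18–24 h. MIC read as lowest concentration with no visible growth.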
In general terms: In broth dilution the organism is exposed to a series of concentrations in liquid medium.

Series [2] can be described thus: Cell viability staining with Alamar Blue (cytotoxicity CC50), Hep2. The following applies: human, R6 = F, Hep2 ATCC CCL-23, read-out: hep2 CC50. The method, then:
To determine whether the microcidal effect observed against S. aureus and E. coli is specific to bacterial cells, compounds are screened for cell viability effects on several human cell types.
Optimal cell density is first determined by plating cells in a 96-well plate standard sterile tissue culture plates in 100 μl media, 10% FBS at six cell densities from 500 cells/well to 15,000 cells/well. A cell free well containing only media is used as a control. Cells are incubated at 37° C. in a 5% CO2 incubator for 24 hours. 10% culture volume (10 ul) of Alamar Blue (Biosource, DAL1100, 100 mL) is then added. Cells are incubated at 37° C. in a 5% CO2 incubator and read in a Victor V plate reader, 544 nm excitation, 590 nm emission, at 3, 4, and 24 hours after the addition of Alamar Blue. The cell number vs. change in fluorescence is plotted to determine linearity of signal vs. cell number. The optimal density varies between 500-15,000 cells/well depending on the specific cell type. The optimal density is selected based on the highest number of cells that is still in the linear response range.
Determination of Compound Cytotoxicity
Cells are plated at optimal cell density in a standard sterile tissue culture 96 well plate, and incubated at 37° C. O/N in a 5% CO2 incubator. 12 to 48 hours post-plating media is removed. The cells are washed 1 or 2 times with 1×PBS and replaced with fresh media containing the test compound in 1% DMSO. 24 to 72 hours after addition of compound, the media is removed, and the cells washed 1 to 2 times with 1×PBS. Fresh media containing 1/10 volume of Alamar Blue is then added. Plates are incubated 4 hours at 37° C. in a 5% CO2 incubator and read in a Victor V plate reader, 544 nm excitation, 590 nm emission.
Compounds are diluted to 20 micromolar in 1% DMSO and media and screened in duplicate to obtain single concentration cytotoxicity data. Eight concentration points from 0.78 micromolar to 100 micromolar, run in duplicate, are used to determine cyclotoxicity CC50 values. Cells with 1% DMSO and media are used as a negative control, compounds having a known CC50 against a particular cell type are used as positive controls.
The change in fluorescence vs. concentration of test compound is plotted to determine the cytotoxicity of the compound.
Sample media conditions, optimal plating densities, and positive control compounds for two cell types screened are presented in Table III.
On the technique in general: The colour change of resazurin is a common sign of viable cells or microbes.

Series [3] has as its system E. coli ATCC 25922. In words: Minimum Inhibitory Concentration (MIC) assay, E. coli. Particulars: Escherichia coli, ATCC25922; broth microdilution; read-out: MIC against E. coli. Summed up:
as §1

For series [4], the system named is MRSA strain ATCC 700699. Put plainly: Minimum Inhibitory Concentration (MIC) assay, Methicillin Resistant S. Aureus. The following applies: Staphylococcus aureus. From the text: It has been unexpectedly discovered that substitution of compounds of Formula I and Formula II with a methoxy substituent at the R8 position increases the anti-microbial activity of the compound against Methicillin resistant Staphylococcus Aureus bacteria while at the same time decreasing the cellular toxicity of the compound. The simultaneous increase in compound activity and decrease in compound toxicity provides a greater therapeutic range for compounds of Formula I and Formula II in which R8 is methoxy; i.e. the range of doses of such compounds that will produce beneficial effects without harmful side effects is increased. […] Therapeutic range is determined using a standard assay of cytotoxicity such as the Alamar blue assay provided in Example 10.
The antimicrobial activity of the compounds of the invention may be evaluated by a number of methods, including the following visual minimum inhibitory concentration (MIC) assay. This assay determines the minimum concentration of compound required to inhibit growth of a bacterial strain.
Minimum Inhibitory Concentration (MIC) Assay
Whole-cell antibacterial activity is determined by broth microdilution using conditions recommended by the NCCLS (see National Committee for Clinical Laboratory Standards. 2001. Performance standards for antimicrobial susceptibility testing: 11th informational supplement. Vol. 21, no. 1, M100-S11. National Committee for Clinical Laboratory Standards, Wayne, Pa.). Test compounds are dissolved in DMSO and diluted 1:50 in Mueller-Hinton II broth (Becton-Dickinson) to produce a 256 μg/ml stock solution. In a 96-well microtiter plate, the compound solution is serially two-fold diluted in Mueller-Hinton II broth. After the compounds are diluted, a 50 μl aliquot of the test organism (˜1×10^6 cfu/mL) is added to each well of the microtiter plate. The final test concentrations ranges from 0.125-128 μg/mL. Inoculated plates are incubated in ambient air at 37° C. for 18 to 24 hours. The organisms selected for testing included laboratory strains S. aureus ATCC 29213 and E. coli ATCC 25922 (strains purchased from American Type Culture Collection, Manassas, Va.), S. aureus FQR700699, and Paeruginosa 27853. The minimum inhibitory concentration (MIC) is determined as the lowest concentration of compound that inhibited visible growth of the test organism.

[5] abbreviates: R6 = F, R8 = Methoxy compounds, MRSA ATCC 700699, read-out: MRSA MIC.
Where [6] appears, read: Hep2 cells (ATCC CCL-23), R8 = Methoxy compounds.
Where [7] appears, read: Hep2 cells (ATCC CCL-23), R8 = H compounds.
[8] abbreviates: broth microdilution, read-out: MIC against Methicillin Resistant S. Aureus.
[9] abbreviates: R6 = F, R8 = H compounds, MRSA ATCC 700699, read-out: MRSA MIC.

With `COc1c(N2CCNCC2)c(F)cc2c(=O)c3c(=O)[nH]sc3n(C3CC3)c12` [Compound 38, 9-cyclopropyl-6-fluoro-8-methoxy-7-(piperazin-1-yl)isothia-zolo[5,4-b]quinoline-3,4(2H,9H)-dione], the minimum inhibitory concentration (MIC) in series [1] is not above 1 µg/mL; in series [3] it was not above 1 µg/mL; in series [4] (setting [5]), 4.8 µg/mL (≈ 12.3 µM). Moreover, the CC50 in series [2] (R8 = Methoxy compounds) amounted to 27 µM.

On to `COc1c(N2CC3CCCNC3C2)c(F)cc2c(=O)c3c(=O)[nH]sc3n(C3CC3)c12` (stereo not drawn) [Compound 45, 9-cyclopropyl-6-fluoro-8-methoxy-7-(octahydro-pyrrolo[3,4-b]pyridin-6-yl)isothia-zolo[5,4-b]quinoline-3,4(2H,9H)-dione, hydrochloride], for which the figures for the MIC in series [1], in series [3] and in series [4] (read-out: MRSA MIC) were not above 1 µg/mL, not above 1 µg/mL and 2 µg/mL, respectively. For the same compound, the half-maximal cytotoxic concentration (CC50) in series [2] (setting [6]) was found to be 93 µM.

In the case of `O=c1[nH]sc2c1c(=O)c1cc(F)c(N3CC4CCCNC4C3)cc1n2C1CC1` (stereo not drawn) [Compound 46, 9-cyclopropyl-6-fluoro-7-(octahydro-pyrrolo[3,4-b]pyridin-6-yl)isothia-zolo[5,4-b]quinoline-3,4(2H,9H)-dione, hydrochloride], the minimal inhibitory concentration (MIC) in series [1] is not above 1 µg/mL; in series [3], not above 1 µg/mL; in series [4] (read-out: MRSA MIC) it was 4 µg/mL. In addition, in series [2] (setting [7]), the CC50 stood at 4.7 µM.

Consider `COc1c(N2CCC(N(C)C)C2)c(F)cc2c(=O)c3c(=O)[nH]sc3n(C3CC3)c12` (stereo not drawn) [Compound 49, 9-cyclopropyl-7-(3-(dimethyl-amino)pyrrolidin-1-yl)-6-fluoro-8-methoxy-isothiazolo[5,4-b]quinoline-3,4(2H,9H)-dione], for which the values for the MIC in series [1], in series [3] and in series [4] (setting [5]) were not above 1 µg/mL, not above 1 µg/mL and 4 µg/mL (≈ 9.56 µM), respectively. Also, the CC50 in series [2] (setting [6]) came to 68 µM.

With `CC(C)(N)[C@@H]1CCN(c2cc3c(cc2F)c(=O)c2c(=O)[nH]sc2n3C2CC2)C1` [Compound 52, (R)-7-(3-(2-aminopropan-2-yl)pyrrolidin-1-yl)-9-cyclopropyl-6-fluoroisothia-zolo[5,4-b]quinoline-3,4(2H,9H)-dione, hydrochloride], the MIC in series [1] was not above 1 µg/mL; in series [3] it was not above 1 µg/mL; in series [4] (read-out: MRSA MIC), 0.38 µg/mL; in series [4] (setting [8]), not above 1 µg/mL. Moreover, the half-maximal cytotoxic concentration (CC50) in series [2] (setting [7]) is 0.55 µM.

As for `COc1c(N2CC[C@@H](C(C)(C)N)C2)c(F)cc2c(=O)c3c(=O)[nH]sc3n(C3CC3)c12` [Compound 53, (R)-7-(3-(2-aminopropan-2-yl)pyrrolidin-1-yl)-9-cyclopropyl-6-fluoro-8-methoxyiso-thiazolo[5,4-b]quinoline-3,4(2H,9H)-dione], the MIC in series [1] is not above 1 µg/mL; in series [3] it was not above 1 µg/mL; in series [4] (setting [5]) it was 0.1 µg/mL (≈ 0.231 µM); in series [4] (setting [8]), not above 1 µg/mL. In addition, the CC50 in series [2] (setting [6]) is 8.5 µM.

On to `COc1c(N2CC[C@H](C(C)(C)N)C2)c(F)cc2c(=O)c3c(=O)[nH]sc3n(C3CC3)c12` [Compound 58, (S)-7-(3-(2-aminopropan-2-yl)pyrrolidin-1-yl)-9-cyclopropyl-6-fluoro-8-methoxyiso-thiazolo[5,4-b]quinoline-3,4(2H,9H)-dione], for which the MIC is not above 1 µg/mL in series [1], not above 1 µg/mL in series [3] and 1.5 µg/mL (≈ 3.47 µM) in series [4] (setting [5]). In addition, the CC50 in series [2] (setting [6]) stood at 61 µM.

In the case of `CC(C)(N)[C@H]1CCN(c2cc3c(cc2F)c(=O)c2c(=O)[nH]sc2n3C2CC2)C1` [Compound 61, (S)-7-(3-(2-aminopropan-2-yl)pyrrolidin-1-yl)-9-cyclopropyl-6-fluoroiso-thiazolo[5,4-b]quinoline-3,4(2H,9H)-dione], the values for the minimal inhibitory concentration (MIC) in series [1] and in series [4] (setting [9]) were not above 1 µg/mL and 16 µg/mL (≈ 39.8 µM), respectively. The CC50 in series [2] (setting [7]) is 6.1 µM.

Take `COc1c(N2CC[C@@H](CN)C2)c(F)cc2c(=O)c3c(=O)[nH]sc3n(C3CC3)c12` [Compound 63, (S)-7-(3-(aminomethyl)-pyrrolidin-1-yl)-9-cyclopropyl-6-fluoro-8-methoxyiso-thiazolo[5,4-b]quinoline-3,4(2H,9H)-dione]: the minimum inhibitory concentration (MIC) was not above 1 µg/mL in series [1], not above 1 µg/mL in series [3], 0.42 µg/mL (≈ 1.04 µM) in series [4] (setting [5]) and not above 1 µg/mL in series [4] (setting [8]). Also, the CC50 in series [2] (setting [6]) is 11 µM.

For the compound `NC[C@@H]1CCN(c2cc3c(cc2F)c(=O)c2c(=O)[nH]sc2n3C2CC2)C1` [Compound 64, (S)-7-(3-(aminomethyl)-pyrrolidin-1-yl)-9-cyclopropyl-6-fluoroiso-thiazolo[5,4-b]quinoline-3,4(2H,9H)-dione], the figures for the MIC in series [1] and in series [4] (setting [9]) were not above 1 µg/mL and 1 µg/mL (≈ 2.67 µM), respectively. Besides, the half-maximal cytotoxic concentration (CC50) in series [2] (setting [7]) came out at 3.1 µM.

For `COc1c(N2CC[C@H](CN)C2)c(F)cc2c(=O)c3c(=O)[nH]sc3n(C3CC3)c12` [Compound 67, (R)-7-(3-(aminomethyl)-pyrrolidin-1-yl)-9-cyclopropyl-6-fluoro-8-methoxyiso-thiazolo[5,4-b]quinoline-3,4(2H,9H)-dione], the minimal inhibitory concentration (MIC) is not above 1 µg/mL in series [1], not above 1 µg/mL in series [3], 0.25 µg/mL (≈ 0.618 µM) in series [4] (setting [5]) and not above 1 µg/mL in series [4] (setting [8]). For the same compound, in series [2] (setting [6]), the CC50 is 11 µM.

With `COc1c(N2CC[C@@H](C(C)N)C2)ccc2c(=O)c3c(=O)[nH]sc3n(C3CC3)c12` (stereo partly drawn) [Compound 102, (R)-7-(3-(1-aminoethyl)-pyrrolidin-1-yl)-9-cyclopropyl-8-methoxyiso-thiazolo[5,4-b]quinoline-3,4(2H,9H)-dione], the MIC in series [1], in series [3] and in series [4] (setting [8]) was not above 1 µg/mL in each case.

Take `CNC(C)[C@@H]1CCN(c2ccc3c(=O)c4c(=O)[nH]sc4n(C4CC4)c3c2OC)C1` (stereo partly drawn) [Compound 103, (R)-9-cyclo-propyl-8-methoxy-7-(3-(1-(methylamino)-ethyl)pyrrolidin-1-yl)isothia-zolo[5,4-b]quinoline-3,4(2H,9H)-dione]: the MIC in series [1], in series [3] and in series [4] (setting [8]) was not above 1 µg/mL each time.

On to `CN(C)C1CCN(c2cc3c(cc2F)c(=O)c2c(=O)[nH]sc2n3C2CC2)C1` (stereo not drawn) [Compound 114, 9-cyclo-propyl-7-(3-(dimethyl-amino)pyrrolidin-1-yl)-6-fluoroiso-thiazolo[5,4-b]quinoline-3,4(2H,9H)-dione], for which, in series [2] (setting [7]), the CC50 was determined as 3 µM. In addition, in series [4] (setting [9]), the MIC was determined as 2 µg/mL (≈ 5.15 µM).
